{"source": "ChEMBL document CHEMBL3112545", "about": "“Gabapentin hybrid peptides and bioconjugates” (Bioorg Med Chem, 2014)", "key": {"[1]": {"experiment": "Stability of the compound in HCl-MeOH/HCl-1,4-dioxane/TFA-DCM assessed as release of gabapentin, S-nucleophile, 2-aza-spiro[4,5]decan-3-one", "type": "physicochemical", "conditions": "buffer"}, "[2]": {"experiment": "Oral bioavailability in cynomolgus monkey at 39 mg/kg", "type": "ADME, organism-based, Macaca fascicularis", "conditions": "in vivo"}, "[3]": {"experiment": "Toxicity in mouse", "type": "organism-based", "conditions": "in vivo"}, "[4]": {"tested_on": "Mus musculus", "experiment": "Toxicity in ip dosed SKH1-hrhr mouse assessed as mortality measured up to 3 hrs", "type": "organism-based", "conditions": "in vivo"}, "[5]": {"tested_on": "Mus musculus", "experiment": "Toxicity in ip dosed SKH1-hrhr mouse assessed as change in reward licking events measured up to 3 hrs", "type": "organism-based", "conditions": "in vivo"}, "[6]": {"experiment": "Stability of the compound assessed as intramolecular cyclization/decomposition measured over 12 months", "type": "physicochemical", "conditions": "8766 h"}, "[7]": {"tested_on": "Mus musculus", "experiment": "Antinociceptive activity in ip dosed capsaicin-induced SKH1-hrhr mouse assessed change in reward licking events measured 30 mins post injection", "type": "functional, organism-based"}, "[8]": {"tested_on": "Mus musculus", "experiment": "Toxicity in ip dosed capasaicin-induced SKH1-hrhr mouse assessed as mortality measured up to 3 hrs", "type": "organism-based", "conditions": "in vivo"}, "[9]": {"experiment": "Stability of the compound assessed as cyclization into tert-butyl 3-oxo-2-azaspiro[4.5]decane-2-carboxylate at room temperature measured over 12 months", "type": "physicochemical", "conditions": "8766 h"}, "[10]": {"experiment": "Stability of the compound in HCl-MeOH/HCl-1,4-dioxane/TFA-DCM assessed as release of gabapentin, O-nucleophile, 2-aza-spiro[4,5]decan-3-one", "type": "physicochemical", "conditions": "buffer"}, "[11]": {"tested_on": "Cynomolgus monkey", "experiment": "Oral bioavailability in cynomolgus monkey assessed as gabapentin at 36 mg/kg", "type": "ADME, organism-based, Macaca fascicularis", "conditions": "in vivo"}}, "note": "Calls of active or inactive are those of the source. The calls are words filed in the database; no cut-off is given here.", "data": [{"smiles": "CC(C)(C)OC(=O)NCC1(CC(=O)Sc2ccccc2)CCCCC1", "values": [{"measurement": "Stability", "setting": "[1]", "result": "Unstable"}]}, {"smiles": "COC(=O)[C@H](CSC(=O)CC1(CNC(=O)OC(C)(C)C)CCCCC1)NC(=O)[C@H](Cc1ccccc1)NC(=O)OCc1ccccc1", "values": [{"measurement": "Stability", "setting": "[1]", "result": "Unstable"}]}, {"smiles": "NCC1(CC(=O)O)CCCCC1", "note": "[GABAPENTIN]", "values": [{"measurement": "bioavailability", "setting": "[2]", "result": 25, "unit": "%"}, {"measurement": "LD50", "setting": "[3]", "result": "> 8000", "unit": "mg/kg"}, {"measurement": "Activity", "setting": "[4]", "result": "Non-toxic"}, {"measurement": "Activity", "setting": "[5]", "result": "Non-toxic"}]}, {"smiles": "CC(C)[C@H](N)C(=O)NCC1(CC(=O)O)CCCCC1", "values": [{"measurement": "Stability", "setting": "[6]", "result": "Stable"}]}, {"smiles": "C[C@H](N)C(=O)NCC1(CC(=O)O)CCCCC1", "values": [{"measurement": "Stability", "setting": "[6]", "result": "Stable"}, {"measurement": "Activity", "setting": "[7]", "result": "Active"}, {"measurement": "Activity", "setting": "[8]", "result": "Non-toxic"}, {"measurement": "Activity", "setting": "[4]", "result": "Non-toxic"}, {"measurement": "Activity", "setting": "[5]", "result": "Non-toxic"}]}, {"smiles": "C[C@H](NC(=O)CNC(=O)OCc1ccccc1)C(=O)NCCC(=O)NCC1(CC(=O)O)CCCCC1", "values": [{"measurement": "Stability", "setting": "[6]", "result": "Stable"}]}, {"smiles": "CC(C)[C@H]1CC[C@H](C)C[C@@H]1OC(=O)CC1(CNC(=O)OC(C)(C)C)CCCCC1", "values": [{"measurement": "Stability", "setting": "[9]", "result": "Unstable"}, {"measurement": "Stability", "setting": "[10]", "result": "Unstable"}]}, {"smiles": "CC(C)CCC[C@@H](C)[C@H]1CC[C@H]2[C@@H]3CC=C4C[C@@H](OC(=O)CC5(CNC(=O)OC(C)(C)C)CCCCC5)CC[C@]4(C)[C@H]3CC[C@]12C", "values": [{"measurement": "Stability", "setting": "[10]", "result": "Unstable"}]}, {"smiles": "C[C@H](NC(=O)OC(C)(C)C)C(=O)N[C@@H](Cc1ccccc1)C(=O)NCC1(CC(=O)O)CCCCC1", "values": [{"measurement": "Stability", "setting": "[6]", "result": "Stable"}]}, {"smiles": "CC(N)C(=O)NC(Cc1ccccc1)C(=O)NCC1(CC(=O)O)CCCCC1.Cl", "note": "(racemic)", "values": [{"measurement": "Stability", "setting": "[6]", "result": "Stable"}]}, {"smiles": "CC(OC(=O)NCC1(CC(=O)O)CCCCC1)OC(=O)C(C)C", "note": "(stereo not given) [GABAPENTIN ENACARBIL]", "values": [{"measurement": "F", "setting": "[11]", "result": 84, "unit": "%"}]}, {"smiles": "O=C1CC2(CCCCC2)CN1", "values": [{"measurement": "LD50", "setting": "[3]", "result": 300, "unit": "mg/kg"}]}, {"smiles": "C[C@H](NC(=O)CN)C(=O)NCCC(=O)NCC1(CC(=O)O)CCCCC1", "values": [{"measurement": "Stability", "setting": "[6]", "result": "Stable"}]}, {"smiles": "CC(C)[C@H](NC(=O)OCc1ccccc1)C(=O)NCC1(CC(=O)O)CCCCC1", "values": [{"measurement": "Stability", "setting": "[6]", "result": "Stable"}]}, {"smiles": "Cl.NCC1(CC(=O)NCc2ccccc2)CCCCC1", "values": [{"measurement": "Activity", "setting": "[4]", "result": "Non-toxic"}, {"measurement": "Activity", "setting": "[5]", "result": "Non-toxic"}]}, {"smiles": "C[C@H](NC(=O)OCc1ccccc1)C(=O)NCC1(CC(=O)O)CCCCC1", "values": [{"measurement": "Stability", "setting": "[6]", "result": "Stable"}]}]}
